# Measured values: patent US20050222108A1, “Solvent-based sterilisation of pharmaceuticals” (priority 2002, published 2005)
# Where two headings read alike, the source gives them in different places.
# What was measured:
# [1] = assay type: physicochemical; details: for Area %: 100° C. under nitrogen, in water
# Procedure: A sample from the above example was heated to 100° C. under nitrogen for 30 hours to examine the stability of the drug under extended distillation times required on scale-up. No new impurities were evident in the area % chromatogram and the assay of the fluticasone propionate appears unaffected by extended periods at 100° C. in water.
# [2] = Solubility by w/w % assay of saturated solutions in various solvents; assay type: physicochemical; details: saturated solution, 21-23° C.
# Procedure: The solubility of fluticasone propionate was measured by w/w % assay of saturated solutions in a variety of solvents at 21-23° C.
# [3] = Stability to distillation at atmospheric pressure (HPLC area % profile); assay type: physicochemical; details: Example 5
# Procedure: In this example, a development of example 4, the distillation was performed at atmospheric pressure and the first distillation was halted when the pot temperature reached 99° C. […] A further 25 volumes of water were added and the distillation continued until 25 volumes of distillate had been removed.
structure (smiles),measurement,setting,value
CCC(=O)O[C@]1(C(=O)SCF)[C@H](C)C[C@H]2[C@@H]3C[C@H](F)C4=CC(=O)C=C[C@]4(C)[C@@]3(F)[C@@H](O)C[C@@]21C [fluticasone propionate],Time chemically stable to distillation at 100° C.,[1],at least 30 hours
same,Assay of fluticasone propionate after extended periods at 100° C. in water,"[1]; 100° C. in water, up to 30 hours, no new impurities in area % chromatogram",unaffected
same,Area %,[1]; Time 0 hr,99.2%
same,Area %,[1]; Time 6 hr,99.4%
same,Area %,[1]; Time 24 hr,99.5%
same,Area %,[1]; Time 30 hr,99.4%
same,w/w % solubility of fluticasone propionate,[2]; Acetone,5.7 w/w %
same,w/w % solubility of fluticasone propionate,[2]; Ethanol,0.4 w/w %
same,w/w % solubility of fluticasone propionate,[2]; Ethyl acetate,0.2 w/w %
same,w/w % solubility of fluticasone propionate,[2]; Isopropanol,0.3 w/w %
same,w/w % solubility of fluticasone propionate,[2]; tBME,1.2 w/w %
same,"Stability to distillation at 100° C. (HPLC area % profile, starting solid to final aqueous slurry)",[3],stable
